Test results reported in patent US10550111B2, “Pyrimidine urea compound containing isoxazolines and use thereof” (SHENYANG SINOCHEM AGROCHEMICALS R&D CO., LTD, priority 2014, dated 2020).

What was measured:
Format in all cases: in vivo
[1] = system: broad-leaf weeds and grass weeds; assay: General screening of herbicidal activity in greenhouse; settings: 1000 g a.i./hm^2;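 note: 0 means no visible effect and 100 means all weeds dead or not emerged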
Method: (§1) Determination of herbicidal activity of compounds of the present invention against weeds was carried out by the following procedures:
(§2) Seeds of monocotyledonous and dicotyledonous weeds were sown in nutrition soil in paper pot (7 cm diameter), covered with soil in 1 cm and grown in the greenhouse under good growth conditions (temperature, atmospheric humidity, water supply). The compounds of the present invention as emulsifiable concentrate, were applied in pre-emergence and post-emergence treatment by track sprayer (Engineer Research Ltd., pressure 1.95 kg/cm^2, volume 500 L/hm^2, track speed 1.48 km/h). Pre-emergence treatment was conducted after seeding 24 hours and post-emergence treatment was done when the respective weeds reached predetermined leaf stage (grass weed 2- to 3-leaf stage, broad-leaf weed 2- to 4-leaf stage), the state of growth of the respective weeds were visually observed to determine the growth inhibition rate (%) in accordance with the following evaluation standard.
(§3) Growth inhibition rate (%): 0=no discernible action: 100=all weeds dead or not emerged.

Zinnia elegans Jacq. = assay: Bioassay of herbicidal activity in greenhouse (further screening)
Method: as §1, §2, §3

[2] = system: Setaria glauca (L.) Beauv.; assay: as above
Method: as §1, §2, §3

[3] = system: Abutilon theophrasti Medic.; assay: as above
Method: as §1, §2, §3

[4] = system: Echinochloa crus-galli (L.) Beauv.; assay: as above
Method: as §1, §2, §3

With `Cn1c(C(F)(F)F)cc(=O)n(-c2cc(C3=NOC(C)(COC(=O)c4cc(Oc5ccc(C(F)(F)F)cc5Cl)ccc4[N+](=O)[O-])C3)c(Cl)cc2F)c1=O` (stereo not drawn) [Compound 67] as the compound, how does the “pre-emergence and post-emergence herbicidal activity against broad-leaf weeds and grass weeds” value [1] read?
The value was “good”.

What does the source list for `CCOC(=O)C1(C)CC(c2cc(-n3c(=O)cc(C(F)(F)F)n(C)c3=O)ccc2Cl)=NO1` (stereo not drawn) [Compound 284]?
pre-emergence and post-emergence herbicidal activity against broad-leaf weeds and grass weeds [1]: good; Growth inhibition rate, Post-emergence treatment, Zinnia elegans Jacq. (Zinnia elegans Jacq.; dose 37.5 g a.i./hm^2): 100%; Growth inhibition rate, Post-emergence treatment, Zinnia elegans Jacq. (Zinnia elegans Jacq.; dose 150 g a.i./hm^2): 100%; Growth inhibition rate, Post-emergence treatment, Zinnia elegans Jacq. (Zinnia elegans Jacq.; dose 600 g a.i./hm^2): 100%; Growth inhibition rate, Pre-emergence treatment, Zinnia elegans Jacq. (Zinnia elegans Jacq.; dose 37.5 g a.i./hm^2): 0%; Growth inhibition rate, Pre-emergence treatment, Zinnia elegans Jacq. (Zinnia elegans Jacq.; dose 150 g a.i./hm^2): 10%; Growth inhibition rate, Pre-emergence treatment, Zinnia elegans Jacq. (Zinnia elegans Jacq.; dose 600 g a.i./hm^2): 35%; Growth inhibition rate, Post-emergence treatment, Setaria glauca (L.) Beauv. ([2]; dose 37.5 g a.i./hm^2): 75%; Growth inhibition rate, Post-emergence treatment, Setaria glauca (L.) Beauv. ([2]; dose 150 g a.i./hm^2): 90%; Growth inhibition rate, Post-emergence treatment, Setaria glauca (L.) Beauv. ([2]; dose 600 g a.i./hm^2): 100%; Growth inhibition rate, Pre-emergence treatment, Setaria glauca (L.) Beauv. ([2]; dose 37.5 g a.i./hm^2): 0%; Growth inhibition rate, Pre-emergence treatment, Setaria glauca (L.) Beauv. ([2]; dose 150 g a.i./hm^2): 10%; Growth inhibition rate, Pre-emergence treatment, Setaria glauca (L.) Beauv. ([2]; dose 600 g a.i./hm^2): 20%; Growth inhibition rate, Post-emergence treatment, Abutilon theophrasti Medic. ([3]; dose 37.5 g a.i./hm^2): 95%; Growth inhibition rate, Post-emergence treatment, Abutilon theophrasti Medic. ([3]; dose 150 g a.i./hm^2): 100%; Growth inhibition rate, Post-emergence treatment, Abutilon theophrasti Medic. ([3]; dose 600 g a.i./hm^2): 100%; Growth inhibition rate, Pre-emergence treatment, Abutilon theophrasti Medic. ([3]; dose 37.5 g a.i./hm^2): 0%; Growth inhibition rate, Pre-emergence treatment, Abutilon theophrasti Medic. ([3]; dose 150 g a.i./hm^2): 50%; Growth inhibition rate, Pre-emergence treatment, Abutilon theophrasti Medic. ([3]; dose 600 g a.i./hm^2): 65%; Growth inhibition rate, Post-emergence treatment, Echinochloa crus-galli (L.) Beauv. ([4]; dose 37.5 g a.i./hm^2): 70%; Growth inhibition rate, Post-emergence treatment, Echinochloa crus-galli (L.) Beauv. ([4]; dose 150 g a.i./hm^2): 80%; Growth inhibition rate, Post-emergence treatment, Echinochloa crus-galli (L.) Beauv. ([4]; dose 600 g a.i./hm^2): 100%; Growth inhibition rate, Pre-emergence treatment, Echinochloa crus-galli (L.) Beauv. ([4]; dose 37.5 g a.i./hm^2): 0%; Growth inhibition rate, Pre-emergence treatment, Echinochloa crus-galli (L.) Beauv. ([4]; dose 150 g a.i./hm^2): 10%; Growth inhibition rate, Pre-emergence treatment, Echinochloa crus-galli (L.) Beauv. ([4]; dose 600 g a.i./hm^2): 20%

For `CC(=O)OCC1(C)CC(c2cc(-n3c(=O)cc(C(F)(F)F)n(C)c3=O)ccc2Cl)=NO1` (stereo not drawn) [Compound 321], which “pre-emergence and post-emergence herbicidal activity against broad-leaf weeds and grass weeds” value [1] is on record?
The value was “good”.

Which “pre-emergence and post-emergence herbicidal activity against broad-leaf weeds and grass weeds” value [1] does the source give for `CC(C)C(=O)OCC1(C)CC(c2cc(-n3c(=O)cc(C(F)(F)F)n(C)c3=O)ccc2Cl)=NO1` (stereo not drawn) [Compound 324] here?
Its value is “good”.

`COc1c(Cl)ccc(Cl)c1C(=O)OCC1(C)CC(c2cc(-n3c(=O)cc(C(F)(F)F)n(C)c3=O)c(F)cc2Cl)=NO1` (stereo not drawn) [Compound 66] was tested. Which “pre-emergence and post-emergence herbicidal activity against broad-leaf weeds and grass weeds” value [1] did it give?
The value was “good”.

`Cn1c(C(F)(F)F)cc(=O)n(-c2ccc(Cl)c(C3=NOC(C)(COC(=O)CCCl)C3)c2)c1=O` (stereo not drawn) [Compound 329] was tested. Which “pre-emergence and post-emergence herbicidal activity against broad-leaf weeds and grass weeds” value [1] did it give?
Its value is “good”.
